From publication PMC8936434 (Frontiers in Pharmacology, 2022)
Read-outs that look alike come from different tables or passages of the source.

Assays:
SW1573 = test: In vitro P-gp assay: antiproliferative activity in wild-type SW1573 cells; assay type: cell-based; conditions: Homo sapiens
Method: (§1) Compounds were tested against both cell lines in the presence or absence of 10 µM verapamil (a known P-gp and CYP3A4/5 inhibitor).

[1] = In vitro P-gp assay: antiproliferative activity in P-gp-overexpressing SW1573/P-gp cells; conditions: human
Method: as §1

hERG K+ channel (Kv11.1) = hERG K+ channel (Kv11.1) (Homo sapiens, UniProt Q12809); test: hERG (Kv11.1) current, whole-cell patch-clamp in hERG-HEK293 cells; assay type: cell-based
Chain of hERG K+ channel (Kv11.1) (Q12809 whole entry): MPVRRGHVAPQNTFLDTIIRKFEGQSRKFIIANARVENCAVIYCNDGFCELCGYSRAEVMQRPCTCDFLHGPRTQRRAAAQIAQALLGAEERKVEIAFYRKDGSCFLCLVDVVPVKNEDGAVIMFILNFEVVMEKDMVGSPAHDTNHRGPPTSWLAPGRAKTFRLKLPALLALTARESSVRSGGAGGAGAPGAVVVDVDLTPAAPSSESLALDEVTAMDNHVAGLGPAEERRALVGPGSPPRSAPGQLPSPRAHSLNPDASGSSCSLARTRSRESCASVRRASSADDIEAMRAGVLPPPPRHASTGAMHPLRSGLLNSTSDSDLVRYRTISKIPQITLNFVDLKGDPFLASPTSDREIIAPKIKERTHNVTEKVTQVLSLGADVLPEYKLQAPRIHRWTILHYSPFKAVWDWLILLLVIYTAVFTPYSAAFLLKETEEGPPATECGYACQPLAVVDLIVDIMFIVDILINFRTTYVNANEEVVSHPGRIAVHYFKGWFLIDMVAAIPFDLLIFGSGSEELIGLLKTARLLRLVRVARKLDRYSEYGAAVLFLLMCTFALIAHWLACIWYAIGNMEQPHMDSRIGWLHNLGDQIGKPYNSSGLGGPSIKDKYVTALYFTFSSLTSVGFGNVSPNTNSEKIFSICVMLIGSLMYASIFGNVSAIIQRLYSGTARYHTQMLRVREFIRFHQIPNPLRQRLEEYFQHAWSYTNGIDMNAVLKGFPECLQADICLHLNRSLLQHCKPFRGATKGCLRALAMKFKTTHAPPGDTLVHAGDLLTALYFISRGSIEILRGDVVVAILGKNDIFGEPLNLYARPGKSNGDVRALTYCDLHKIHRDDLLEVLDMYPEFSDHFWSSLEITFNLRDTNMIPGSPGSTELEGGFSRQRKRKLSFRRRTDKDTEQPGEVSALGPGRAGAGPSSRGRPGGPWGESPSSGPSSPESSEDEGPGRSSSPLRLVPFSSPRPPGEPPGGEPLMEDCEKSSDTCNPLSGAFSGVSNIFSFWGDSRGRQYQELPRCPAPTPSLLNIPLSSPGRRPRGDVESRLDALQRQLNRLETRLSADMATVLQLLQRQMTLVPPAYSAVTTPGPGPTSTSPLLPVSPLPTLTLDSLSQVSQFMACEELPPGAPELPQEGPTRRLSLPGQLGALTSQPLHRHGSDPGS
Method: hERG-HEK293 cells (BPS Bioscience, San Diego, United States), expressing hERG K^+ channel (Kv11.1), were cultured in Minimal Essential Medium (MEM) supplemented with 10% fetal bovine serum, 1% non-essential amino acids, 1% Na pyruvate, 1% penicillin/streptomycin, and 400 μg/ml geneticin ([Lazzerini et al., 2021]).
The bath solution contained (in mM): 136 NaCl, 5.4 KCl, 10 HEPES, 10 D-glucose ∙ H2O, 1 CaCl2 ∙ 2 H2O, 1 MgCl2 ∙ 6 H2O, pH 7.4 with NaOH, whereas the pipette solution consisted of (in mM): 130 KCl, 10 EGTA, 10 HEPES, 5 MgATP, 1 MgCl2 ∙ 6 H2O, pH 7.2 with KOH.
Whole-cell recording was performed as previously described ([Lazzerini et al., 2021]), and a depolarizing step from a holding potential of […] was applied to elicit the Kv11.1 current. Tail current was evoked by repolarizing the cell membrane to −50 mV for 4 s.

HepG2 cells [2] = test: LDH release from HepG2 cells; assay type: cell-based, Human
HepG2 cells [3] = test: HepG2 cell viability (MTT assay); assay type: cell-based; conditions: Homo sapiens, mean ± SD, 3 experiments
Method: Human hepatoma (HepG2) cells (European Collection of Authenticated Cell Cultures) were cultured in Dulbecco’s modified Eagle’s medium (DMEM) supplemented with 10% heat-inactivated fetal bovine serum (FBS) and 2 mM L-glutamine at 37°C in 5% CO2 humidified atmosphere.

primary rat hepatocytes [4] = test: LDH release from primary rat hepatocytes; assay type: cell-based
primary rat hepatocytes [5] = test: Primary rat hepatocyte viability (trypan blue exclusion assay); assay type: cell-based; conditions: read-out: IC50, number of viable cells
zebrafish ABCB4 = tested on: zebrafish ABCB4; set-up: method as in earlier work; conditions: concentrations up to 100 µM; ref [67]; cited from earlier work
primary rat hepatocytes [6] = test: Lipid peroxidation (MDA) in primary rat hepatocytes; conditions: compared to Dox
recombinant human CYP3A4 = recombinant human CYP3A4 (Homo sapiens, UniProt P08684); test: In vitro inhibition of human CYP3A4
Chain of recombinant human CYP3A4 (P08684 whole entry): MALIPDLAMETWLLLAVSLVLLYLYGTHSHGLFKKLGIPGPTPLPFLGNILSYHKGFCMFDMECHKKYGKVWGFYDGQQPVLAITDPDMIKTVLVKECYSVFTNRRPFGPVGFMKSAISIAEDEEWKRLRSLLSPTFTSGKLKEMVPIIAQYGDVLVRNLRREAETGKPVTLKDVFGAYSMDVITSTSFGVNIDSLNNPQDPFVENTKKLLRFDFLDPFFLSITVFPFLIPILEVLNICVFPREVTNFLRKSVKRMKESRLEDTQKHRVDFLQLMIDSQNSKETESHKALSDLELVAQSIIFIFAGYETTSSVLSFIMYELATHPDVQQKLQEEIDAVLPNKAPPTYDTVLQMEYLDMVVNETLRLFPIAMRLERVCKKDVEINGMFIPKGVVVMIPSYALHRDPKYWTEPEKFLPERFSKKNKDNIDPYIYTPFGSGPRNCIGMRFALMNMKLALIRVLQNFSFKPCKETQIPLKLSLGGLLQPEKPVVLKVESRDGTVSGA
Method: Kinetic assays were carried out in a final volume of 100 µl containing 10 µM substrate, 2.5 nM recombinant CYP3A4, various concentrations of the tested compounds, and 20% NADPH regenerating system in 100 mM Tris–HCl (pH 7.4). Incubations took place in duplicate at 37°C in 96-multiwell plates; fluorescence was measured with a Victor2 plate reader (PerkinElmer Life Sciences, Turku, Finland). The reaction was started by adding NADPH, and fluorescence was measured at 2-min intervals for 40 min using excitation at 405 nm and emission at 460 nm.

primary rat hepatocytes [7] = test: GSH depletion in isolated rat hepatocytes; assay type: cell-based; conditions: compared to Dox
Method: Gluthatione (GSH) depletion was evaluated after 24, 48, or 72 h treatment with both anthracyclines. Isolated rat hepatocytes were centrifuged at 400 g for 3 min, and the pellet was used for measuring intracellular GSH by means of the spectrophotometric method based on the conversion of the sulfhydryl reagent 5,5′-dithiobis-(2-nitrobenzoic acid) (DTNB) to the yellow derivative 5′-thio-2-nitrobenzoic acid (TNB) at 412 nm ([Fau et al., 1992]).

zebrafish embryos = test: Zebrafish embryo toxicity
Method: After 30 min, the eggs were collected, rinsed twice from debris using fresh embryo medium (Instant ocean), and transferred into Petri dishes containing the embryo medium.
Fertilized eggs were selected under a binocular stereomicroscope (PXS-VI, Optica) and transferred into 24-well plates. […] The embryo medium and 0.1% DMSO were used as controls. Treated embryos and controls were then incubated at 28 ± 0.5°C. Each experiment was repeated three times from three independent breedings. In each experiment, at least 3 wells with 12 embryos per treatment per concentration were used.
The zebrafish embryo toxicity assay was performed when fertilization rate was ≥90%. An assay was considered valid if the overall survival of embryos in negative controls was ≥90% until hatching.
All embryos were inspected for morphological characteristics at different developmental stages (48 and 72 hpf) as described by [Kimmel (1989)]. Lethal and teratogenic effects were recorded according to the Organisation for Economic Co-operation and Development (OECD) (236) guidelines for testing of chemicals. Mortality was determined by counting embryos with or without a visible heart beat at 72 hpf. For visual documentation of the malformations and heartbeat, embryos were imaged and recorded using a camera connected to the microscope (CKX41; Olympus, Tokyo, Japan). Each heartbeat was manually counted for 20 s and multiplied by 3 to calculate heart rate (beat/minute) ([Hoage et al., 2012]). At least three embryos per group were recorded and their heart beat counted.

SW1573/P-gp = test: In vitro P-gp assay: antiproliferative activity in P-gp-overexpressing SW1573/P-gp cells; conditions: P-gp-overexpressing cells
Method: as §1

[8] = 10 µM applied at 6 hpf, read at 72 hpf

SMILES	GI50 (SW1573; SW1573, 48 h) [nM]	GI50 at 48 h [1] [nM]	IC50 (HepG2 cells [3]; 24 h) [nM]	IC50 (HepG2 cells [3]; 48 h) [nM]	IC50 (HepG2 cells [3]; 72 h) [nM]	Release of LDH (primary rat hepatocytes [4])	IC50 (primary rat hepatocytes [5]) [nM]	further results
COc1cc2c(c(OC)c1OC)-c1ccc(OC)c(=O)cc1[C@@H](NC(C)=O)CC2 [Colchicine, colchicine]	67 ± 15	2370	–	–	–	–	–	–
COc1cccc2c1C(=O)c1c(O)c3c(c(O)c1C2=O)C[C@@](O)(C(=O)CO)C[C@@H]3O[C@H]1C[C@H](N)[C@H](O)[C@H](C)O1 [Dox, doxorubicin]	70 ± 8.6	1600	6110 ± 660	460 ± 30	190 ± 10	increased the release of LDH in a concentration-dependent manner	9680 ± 890	Effect on hERG currents (hERG K+ channel (Kv11.1); up to 100 μM): did not affect; LDH release (cytotoxicity) compared with Sdox (HepG2 cells [2]; HepG2, regardless of timing of exposure (24, 48, 72 h)): cytotoxic at concentrations lower than those of Sdox; Effect on zebrafish ABCB4 ATPase activity (zebrafish ABCB4): no major effect
CC(=O)O[C@H]1C(=O)[C@@]2(C)[C@H]([C@H](OC(=O)c3ccccc3)[C@]3(O)C[C@H](OC(=O)[C@H](O)[C@@H](NC(=O)c4ccccc4)c4ccccc4)C(C)=C1C3(C)C)[C@]1(OC(C)=O)CO[C@@H]1C[C@@H]2O [Paclitaxel, paclitaxel]	0.53 ± 0.22	298 ± 113	–	–	–	–	–	–
COc1cccc2c1C(=O)c1c(O)c3c(c(O)c1C2=O)C[C@@](O)(C(=O)COC(=O)c1ccc(-c2ssc(=S)c2-c2ccccc2)cc1)C[C@@H]3O[C@H]1C[C@H](N)[C@H](O)[C@H](C)O1 [Sdox, 2-((2S,4S)-4-(((2R,4S,5S,6S)-4-amino-5-hydroxy-6-methyltetrahydro-2H-pyran-2-yl)oxy)-2,5,12-trihydroxy-7-methoxy-6,11-dioxo-1,2,3,4,6,11-hexahydrotetracen-2-yl)-2-oxoethyl 4-(4-phenyl-3-thioxo-3H-1,2-dithiol-5-yl)benzoate]	873 ± 410	–	8690 ± 310	3210 ± 160	1390 ± 30	increased the release of LDH in a concentration-dependent manner	16500 ± 1010	Effect on hERG currents (hERG K+ channel (Kv11.1); up to 10 μM): did not affect; MDA levels (index of lipid peroxidation) (primary rat hepatocytes [6]): lower increase in the MDA levels; Concentration at which LDH release was increased (HepG2 cells [2]; HepG2, 24 and 48 h of treatment, only at the maximum concentration tested): 10 µM; Lowest concentration at which LDH release was increased (HepG2 cells [2]; HepG2, 72 h of treatment): 4 µM; IC50 (recombinant human CYP3A4): 3100 nM; Reduced GSH (primary rat hepatocytes [7]): lower decrease in the reduced GSH; Effect on number of live embryos (zebrafish embryos; [8]): ineffective; Embryos alive (zebrafish embryos; [8]): ~90%; Developmental toxicity (zebrafish embryos; 10 µM, 72 hpf): did not display developmental toxicity; Concentration above which a precipitate was observed (zebrafish embryos; zebrafish embryo medium): > 10 µM; GI50 [1]: 3020 nM; Times less affected by P-gp compared with parent compound Dox (SW1573/P-gp): ca. 6.5 times
CC[C@]1(O)C[C@@H]2CN(CCc3c([nH]c4ccccc34)[C@@](C(=O)OC)(c3cc4c(cc3OC)N(C)[C@H]3[C@@](O)(C(=O)OC)[C@H](OC(C)=O)[C@]5(CC)C=CCN6CC[C@]43[C@@H]65)C2)C1 [Vinblastine, vinblastine]	0.94 ± 0.35	16 ± 4.7	–	–	–	–	–	–
CC[C@]1(O)C[C@H]2CN(CCc3c([nH]c4ccccc34)[C@@](C(=O)OC)(c3cc4c(cc3OC)N(C=O)[C@H]3[C@@](O)(C(=O)OC)[C@H](OC(C)=O)[C@]5(CC)C=CCN6CC[C@]43[C@@H]65)C2)C1 [Vincristine, vincristine]	–	–	–	–	–	–	–	GI50 (SW1573; SW1573, w/o verapamil, 48 h exposure, mean ± SD (n = 3–5), read-out: GI50): 3.9 ± 1.5 nM; GI50 at 48 h ([1]; SW1573/P-gp cells (P-gp-overexpressing variant of SW1573)): 86 ± 15 nM
